The values that follow come from ChEMBL document CHEMBL1821658, “Synthesis, antimicrobial evaluation and QSAR analysis of novel nalidixic acid based 1,2,4-triazole derivatives” (2011).

≈ marks a conversion by molar mass, not a printed value.

Format in all cases: functional
Assay [1] concerns Staphylococcus aureus. The assay is described as follows: Antibacterial activity against Staphylococcus aureus ATCC 2937 after 24 hrs by broth micro dilution assay. The following applies: ATCC 2937, 24 h.
In assay [2] the test system is Bacillus subtilis. The assay is described as follows: Antibacterial activity against Bacillus subtilis ATCC 12711 after 24 hrs by broth micro dilution assay. The following applies: ATCC 12711, 24 h.
The test system of assay [3] is Pseudomonas aeruginosa. Put plainly: Antibacterial activity against Pseudomonas aeruginosa ATCC 9027 after 24 hrs by broth micro dilution assay. The following applies: ATCC 9027, 24 h.
The test system of assay [4] is Fusarium oxysporum. The assay is described as follows: Antifungal activity against Fusarium oxysporum by food poison technique. The settings on record: read-out: ED50 (the source's name).
Assay [5] relates to Escherichia coli. Put plainly: Antibacterial activity against Escherichia coli ATCC 8739 after 24 hrs by broth micro dilution assay. The following applies: ATCC 8739, 24 h.
Assay [6] has as its system Aspergillus niger. The assay is described as follows: Antifungal activity against Aspergillus niger by food poison technique. The following applies: read-out: ED50 (the source's name).
For assay [7], the system named is Klebsiella pneumoniae. Put plainly: Antibacterial activity against Klebsiella pneumoniae ATCC 31488 after 24 hrs by broth micro dilution assay. The following applies: ATCC 31488, 24 h.

What is called MIC90 is an inhibitory concentration at the 90% level, which refers to growth in some studies and to a panel of isolates in others. Read a low MIC90 as greater potency. With `CCn1cc(-c2nnc(S)n2/N=C/c2ccc(Cl)cc2)c(=O)c2ccc(C)nc21`, the MIC90 in assay [1] is 125 µg/mL (≈ 294 µM); in assay [2], 16 µg/mL (≈ 37.7 µM); in assay [3] it was 16 µg/mL (≈ 37.7 µM); in assay [5], 250 µg/mL (≈ 588 µM); in assay [7], 250 µg/mL (≈ 588 µM). Also, the EC50 in assay [4] turned out to be 79.5 µg/mL (≈ 187 µM); in assay [6], 120 µg/mL (≈ 282 µM).
With `CCn1cc(-c2nnc(S)n2NC(=O)c2ccccc2)c(=O)c2ccc(C)nc21`, the MIC90 in assay [1], in assay [2], in assay [3], in assay [5] and in assay [7] was 63 µg/mL (≈ 155 µM) in each case. Besides, the EC50 in assay [4] is 110 µg/mL (≈ 270 µM); in assay [6], 88.5 µg/mL (≈ 218 µM).
For `CCn1cc(-c2nnc3sc(-c4cccc(Cl)c4Cl)nn23)c(=O)c2ccc(C)nc21`, the MIC90 came out at 125 µg/mL (≈ 273 µM) in assay [1]; 63 µg/mL (≈ 138 µM) in assay [2]; 63 µg/mL (≈ 138 µM) in assay [3]; 31 µg/mL (≈ 67.8 µM) in assay [5]; 63 µg/mL (≈ 138 µM) in assay [7]. Further, the EC50 in assay [4] was found to be 96.9 µg/mL (≈ 212 µM); in assay [6] it was 109 µg/mL (≈ 239 µM).
Turning to `CCn1cc(-c2nnc(S)n2/N=C/c2ccc(Cl)cc2Cl)c(=O)c2ccc(C)nc21`, the MIC90 came out at 125 µg/mL (≈ 272 µM) in assay [1]; 125 µg/mL (≈ 272 µM) in assay [2]; 63 µg/mL (≈ 137 µM) in assay [3]; 250 µg/mL (≈ 544 µM) in assay [5]; 250 µg/mL (≈ 544 µM) in assay [7]. The EC50 in assay [4] is 103 µg/mL (≈ 224 µM); in assay [6], 502 µg/mL (≈ 1090 µM).
Take `CCn1cc(-c2nnc(S)n2/N=C/c2ccc(C(F)(F)F)cc2)c(=O)c2ccc(C)nc21`: the MIC90 in assay [1] came to 250 µg/mL (≈ 545 µM); in assay [2] it was 63 µg/mL (≈ 137 µM); in assay [3] it was 63 µg/mL (≈ 137 µM); in assay [5], 250 µg/mL (≈ 545 µM); in assay [7], 125 µg/mL (≈ 273 µM). For the same molecule, the EC50 in assay [4] amounted to 101 µg/mL (≈ 220 µM); in assay [6], 299 µg/mL (≈ 652 µM).
With `CCn1cc(-c2nnc3sc(=O)c(=O)[nH]n23)c(=O)c2ccc(C)nc21`, the MIC90 in assay [1] is 250 µg/mL (≈ 702 µM); in assay [2], 125 µg/mL (≈ 351 µM); in assay [3] it was 125 µg/mL (≈ 351 µM); in assay [5] it was 125 µg/mL (≈ 351 µM); in assay [7], 63 µg/mL (≈ 177 µM). Moreover, the EC50 was found to be 164 µg/mL (≈ 461 µM) in assay [4] and 348 µg/mL (≈ 975 µM) in assay [6].
Take `CCc1ccc(/C=N/n2c(S)nnc2-c2cn(CC)c3nc(C)ccc3c2=O)cc1`: the MIC90 in assay [1] was determined as 63 µg/mL (≈ 151 µM); in assay [2] it was 63 µg/mL (≈ 151 µM); in assay [3] it was 63 µg/mL (≈ 151 µM); in assay [5] it was 250 µg/mL (≈ 597 µM); in assay [7] it was 63 µg/mL (≈ 151 µM). Further, the figures for the EC50 in assay [4] and in assay [6] were 191 µg/mL (≈ 456 µM) and 229 µg/mL (≈ 547 µM), respectively.
